Measured values reported in patent US20190307776A1, “AZA-S[…] HUMAN IMMUNODEFICIENCY VIRUS REPLICATION” (priority 2016, published 2019).

Test system: recombinant NL4-3 virus
Assay: HIV cell culture assay
Format: cell-based
Settings: Human immunodeficiency virus 1, NL43, MT2
Outline: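 Antiviral activity measured in MT-2 cells infected 4–5 days with NL4-3 carrying Renilla luciferase in place of part of nef plus Gag P373S, in the presence of serial inhibitor dilutions. Read-out was luciferase activity by Dual Luciferase lysis/substrate mix.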

| Structure (SMILES) | EC50 [nM] |
| --- | --- |
| C=C(C)[C@@H]1CC[C@]2(CO)CC[C@]3(C)[C@H](CC[C@@H]4[C@@]5(C)CCCN(S(=O)(=O)c6ccc(C(=O)O)o6)C(C)(C)C5CC[C@]43C)[C@@H]12 (stereo partly drawn) [Example 11, 5-(((7aR,7bR,9aS,12R,12aR,12bR,14aR,14bR)-9a-(hydroxymethyl)-5,5,7a,7b,14b-pentamethyl-12-(prop-1-en-2-yl)icosahydrocyclopenta[7,8]phenanthro[2,1-c]azepin-4(1H)-yl)sulfonyl)furan-2-carboxylic acid] | > 8000 |
| C=C(C)[C@@H]1CC[C@]2(CO)CC[C@]3(C)[C@H](CC[C@@H]4[C@@]5(C)CCCN(C(=O)CCCCC(=O)O)C(C)(C)C5CC[C@]43C)[C@@H]12 (stereo partly drawn) [Example 4, 6-((7aR,7bR,9aS,12R,12aR,12bR,14aR,14bR)-9a-(hydroxymethyl)-5,5,7a,7b,14b-pentamethyl-12-(prop-1-en-2-yl)icosahydrocyclopenta[7,8]phenanthro[2,1-c]azepin-4(1H)-yl)-6-oxohexanoic acid] | > 8000 |
| C=C(C)[C@@H]1CC[C@]2(CO)CC[C@]3(C)[C@H](CC[C@@H]4[C@@]5(C)CCN(S(=O)(=O)c6ccc(CC(=O)O)cc6)C(C)(C)C5CC[C@]43C)[C@@H]12 (stereo partly drawn) [Example 19, 2-(4-(((6aR,6bR,8aS,11R,11aR,11bR,13aR,13bR)-8a-(hydroxymethyl)-4,4,6a,6b,13b-pentamethyl-11-(prop-1-en-2-yl)icosahydro-3H-cyclopenta[5,6]naphtho[2,1-f]isoquinolin-3-yl)sulfonyl)phenyl)acetic acid] | > 8000 |
| C=C(C)[C@@H]1CC[C@]2(CNCCCN3CCS(=O)(=O)CC3)CC[C@]3(C)[C@H](CC[C@@H]4[C@@]5(C)CCN(c6ccc(N)cc6)C(C)(C)[C@@H]5CC[C@]43C)[C@@H]12 [Example 47, 4-(3-((((4aR,6aR,6bR,8aS,11R,11aR,11bR,13aR,13bR)-3-(4-aminophenyl)-4,4,6a,6b,13b-pentamethyl-11-(prop-1-en-2-yl)icosahydro-1H-cyclopenta[5,6]naphtho[2,1-f]isoquinolin-8a-yl)methyl)amino)propyl)thiomorpholine 1,1-dioxide] | > 330 |
| C=C(C)[C@@H]1CC[C@]2(CO)CC[C@]3(C)[C@H](CC[C@@H]4[C@@]5(C)CCN(C(=O)c6ccc(C(=O)O)cc6)C(C)(C)C5CC[C@]43C)[C@@H]12 (stereo partly drawn) [Example 10, 4-((6aR,6bR,8aS,11R,11aR,11bR,13aR,13bR)-8a-(hydroxymethyl)-4,4,6a,6b,13b-pentamethyl-11-(prop-1-en-2-yl)icosahydro-1H-cyclopenta[5,6]naphtho[2,1-f]isoquinoline-3-carbonyl)benzoic acid] | 320 |
| C=C(C)[C@@H]1CC[C@]2(CNCCCN3CCS(=O)(=O)CC3)CC[C@]3(C)[C@H](CC[C@@H]4[C@@]5(C)CCN(C/C=C/C(=O)O)C(C)(C)[C@@H]5CC[C@]43C)[C@@H]12 [Example 34, (E)-4-((4aR,6aR,6bR,8aS,11R,11aR,11bR,13aR,13bR)-8a-(((3-(1,1-dioxidothiomorpholino)propyl)amino)methyl)-4,4,6a,6b,13b-pentamethyl-11-(prop-1-en-2-yl)hexadecahydro-1H-cyclopenta[5,6]naphtho[2,1-f]isoquinolin-3(2H,4H,13bH)-yl)but-2-enoic acid] | > 3000 |
| C=C(C)[C@@H]1CC[C@]2(CNCCCN3CCS(=O)(=O)CC3)CC[C@]3(C)[C@H](CC[C@@H]4[C@@]5(C)CCN(CC(=O)NC(C)(C)C(=O)O)C(C)(C)[C@@H]5CC[C@]43C)[C@@H]12 [Example 35, 2-(2-((4aR,6aR,6bR,8aS,11R,11aR,11bR,13aR,13bR)-8a-(((3-(1,1-dioxidothiomorpholino)propyl)amino)methyl)-4,4,6a,6b,13b-pentamethyl-11-(prop-1-en-2-yl)hexadecahydro-1H-cyclopenta[5,6]naphtho[2,1-f]isoquinolin-3(2H,4H,13bH)-yl)acetamido)-2-methylpropanoic acid] | > 3000 |
| C=C(C)[C@@H]1CC[C@]2(CNCCCN3CCS(=O)(=O)CC3)CC[C@]3(C)[C@H](CC[C@@H]4[C@@]5(C)CCN(c6ccc(C(=O)O)nc6)C(C)(C)[C@@H]5CC[C@]43C)[C@@H]12 [Example 44, 5-((4aR,6aR,6bR,8aS,11R,11aR,11bR,13aR,13bR)-8a-(((3-(1,1-dioxidothiomorpholino)propyl)amino)methyl)-4,4,6a,6b,13b-pentamethyl-11-(prop-1-en-2-yl)hexadecahydro-1H-cyclopenta[5,6]naphtho[2,1-f]isoquinolin-3(2H,4H,13bH)-yl)picolinic acid] | 7 |
| C=C(C)[C@@H]1CC[C@]2(CO)CC[C@]3(C)[C@H](CC[C@@H]4[C@@]5(C)CCCN(C(=O)c6cccc(C(=O)O)c6)C(C)(C)C5CC[C@]43C)[C@@H]12 (stereo partly drawn) [Example 2, 3-((7aR,7bR,9aS,12R,12aR,12bR,14aR,14bR)-9a-(hydroxymethyl)-5,5,7a,7b,14b-pentamethyl-12-(prop-1-en-2-yl)docosahydrocyclopenta[7,8]phenanthro[2,1-c]azepine-4-carbonyl)benzoic acid] | > 8000 |
| C=C(C)[C@@H]1CC[C@]2(CO)CC[C@]3(C)[C@H](CC[C@@H]4[C@@]5(C)CCCN(S(=O)(=O)c6ccc(C(=O)O)cc6)C(C)(C)C5CC[C@]43C)[C@@H]12 (stereo partly drawn) [Example 14, 4-(((7aR,7bR,9aS,12R,12aR,12bR,14aR,14bR)-9a-(hydroxymethyl)-5,5,7a,7b,14b-pentamethyl-12-(prop-1-en-2-yl)icosahydrocyclopenta[7,8]phenanthro[2,1-c]azepin-4(1H)-yl)sulfonyl)benzoic acid] | 1700 |
